One compound from publication PMC3256212, “Mechanism and Function of Drosophila capa GPCR: A Desiccation Stress-Responsive Receptor with Functional Homology to Human NeuromedinU Receptor” (PLoS ONE, 2012) can be followed below.

Molecules are shown by their SMILES. pEC50: −log10 of the molar value. Peptide text beside a SMILES is read from it.

In this experiment the test system is tubule principal cells. More on the design: species or system Drosophila melanogaster. The protocol: All lines were maintained on a standard Drosophila diet at 22°C, 55% humidity on a 12∶12 h light∶dark photoperiod. Wild-type flies were obtained from a Canton-S (CS) stock. In order to drive cell- and tissue-specific gene expression of gene(s) of choice in vivo, the GAL4/UAS system was used, in which cell- or tissue-specific GAL4 ‘drivers’ enable binary expression of genes cloned downstream of the GAL4-binding Upstream Activating Sequence. Thus, for intact tubules, principal cell-specific expression can be driven using either c42-GAL4 [16] or Urate-Oxidase-GAL4 [17] drivers in an otherwise normal fly. […] Validation of the capaR RNAi line was confirmed by quantitative Q-RT-PCR using the primers 5′-[…]-3′ and 5′-[…]-3′ (Fig. S1). […]
Drosophila S2 cells, cultured under standard conditions were transiently transfected with the apoaequorin ORF [21] and a receptor ORF construct, and expression induced using CuSO4. […] Bioluminescence recordings were carried out using a Mithras LB940 automated 96-well plate reader (Berthold Technologies) and MikroWin software. […] At the end of each recording samples were disrupted by the addition of 100 µl lysis solution, and the [Ca^2+] concentrations calculated as previously described. […]

A word on the pEC50: it is the negative decadic logarithm of the EC50, by convention in mol/L. The low end stands for a large EC50, the high end for a small EC50. With `CC(C)C[C@H](NC(=O)[C@H](Cc1ccccc1)NC(=O)[C@H](Cc1ccc(O)cc1)NC(=O)CNC(=O)[C@H](CCCNC(=N)N)NC(=O)[C@H](CO)NC(=O)[C@H](CCC(N)=O)NC(=O)[C@H](CO)NC(=O)[C@H](C)NC(=O)[C@H](Cc1ccccc1)NC(=O)[C@@H]1CCCN1C(=O)[C@H](CO)NC(=O)[C@H](CCC(N)=O)NC(=O)[C@H](Cc1ccccc1)NC(=O)[C@H](CCC(=O)O)NC(=O)[C@H](CCC(=O)O)NC(=O)[C@H](CC(=O)O)NC(=O)[C@@H](NC(=O)[C@H](CCCNC(=N)N)NC(=O)[C@@H](N)Cc1ccccc1)C(C)C)C(=O)N[C@@H](Cc1ccccc1)C(=O)N[C@@H](CCCNC(=N)N)C(=O)N1CCC[C@H]1C(=O)N[C@@H](CCCNC(=N)N)C(=O)N[C@@H](CC(N)=O)C(N)=O` [NMU-25, reference compound] (H-FRVDEEFQSPFASQSRGYFLFRPRN-NH2), the pEC50 is 7.57.
